Activity calls are given as the source filed them. Rule as the data show it, for most assays here: actives have a measured Kd and inactives only a lower limit.
Assays:
[1] = target: Tyrosine-protein kinase ABL2 (Homo sapiens, UniProt P42684)
[2] = target: T1, General transcription and DNA repair factor IIH helicase subunit XPD (Homo sapiens, UniProt P18074); conditions: read-out: Kd apparent; k-562, colo 205, sk-n-be(2) and mv-4-11
T1 sequence (P18074 whole entry): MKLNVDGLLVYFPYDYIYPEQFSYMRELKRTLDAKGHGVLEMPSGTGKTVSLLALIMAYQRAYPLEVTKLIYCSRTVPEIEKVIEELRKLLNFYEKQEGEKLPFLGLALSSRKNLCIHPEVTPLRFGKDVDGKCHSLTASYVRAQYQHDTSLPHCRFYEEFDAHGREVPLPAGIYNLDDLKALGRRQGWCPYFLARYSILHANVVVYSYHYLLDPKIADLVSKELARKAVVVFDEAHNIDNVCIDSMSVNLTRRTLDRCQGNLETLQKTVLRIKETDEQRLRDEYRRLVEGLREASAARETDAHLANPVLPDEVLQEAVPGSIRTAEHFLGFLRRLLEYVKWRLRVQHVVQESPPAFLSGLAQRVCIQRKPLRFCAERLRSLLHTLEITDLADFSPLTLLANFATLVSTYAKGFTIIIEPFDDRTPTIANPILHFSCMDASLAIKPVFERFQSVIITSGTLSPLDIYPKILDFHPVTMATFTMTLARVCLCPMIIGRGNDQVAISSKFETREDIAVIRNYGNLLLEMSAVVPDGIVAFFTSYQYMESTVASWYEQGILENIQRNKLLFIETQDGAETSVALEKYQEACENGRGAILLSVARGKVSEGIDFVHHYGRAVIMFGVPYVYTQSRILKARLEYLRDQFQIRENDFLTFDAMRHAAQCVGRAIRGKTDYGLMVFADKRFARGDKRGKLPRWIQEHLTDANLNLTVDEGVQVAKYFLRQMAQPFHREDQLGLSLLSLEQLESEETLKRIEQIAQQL

[3] = target: cAMP-dependent protein kinase catalytic subunit gamma (Homo sapiens, UniProt P22612)
Chain of cAMP-dependent protein kinase catalytic subunit gamma (P22612 whole entry): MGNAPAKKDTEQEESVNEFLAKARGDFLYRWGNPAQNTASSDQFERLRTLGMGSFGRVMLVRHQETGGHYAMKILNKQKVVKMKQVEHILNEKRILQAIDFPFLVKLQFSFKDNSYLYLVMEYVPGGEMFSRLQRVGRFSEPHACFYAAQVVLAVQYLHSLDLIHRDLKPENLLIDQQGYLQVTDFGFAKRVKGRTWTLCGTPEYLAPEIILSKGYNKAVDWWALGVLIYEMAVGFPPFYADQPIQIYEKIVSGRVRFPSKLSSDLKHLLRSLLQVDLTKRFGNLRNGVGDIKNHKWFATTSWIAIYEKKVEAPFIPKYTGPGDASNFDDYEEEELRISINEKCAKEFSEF

[4] = target: Serine/threonine-protein kinase SIK3 (Homo sapiens, UniProt Q9Y2K2)
Chain of Serine/threonine-protein kinase SIK3 (Q9Y2K2 whole entry): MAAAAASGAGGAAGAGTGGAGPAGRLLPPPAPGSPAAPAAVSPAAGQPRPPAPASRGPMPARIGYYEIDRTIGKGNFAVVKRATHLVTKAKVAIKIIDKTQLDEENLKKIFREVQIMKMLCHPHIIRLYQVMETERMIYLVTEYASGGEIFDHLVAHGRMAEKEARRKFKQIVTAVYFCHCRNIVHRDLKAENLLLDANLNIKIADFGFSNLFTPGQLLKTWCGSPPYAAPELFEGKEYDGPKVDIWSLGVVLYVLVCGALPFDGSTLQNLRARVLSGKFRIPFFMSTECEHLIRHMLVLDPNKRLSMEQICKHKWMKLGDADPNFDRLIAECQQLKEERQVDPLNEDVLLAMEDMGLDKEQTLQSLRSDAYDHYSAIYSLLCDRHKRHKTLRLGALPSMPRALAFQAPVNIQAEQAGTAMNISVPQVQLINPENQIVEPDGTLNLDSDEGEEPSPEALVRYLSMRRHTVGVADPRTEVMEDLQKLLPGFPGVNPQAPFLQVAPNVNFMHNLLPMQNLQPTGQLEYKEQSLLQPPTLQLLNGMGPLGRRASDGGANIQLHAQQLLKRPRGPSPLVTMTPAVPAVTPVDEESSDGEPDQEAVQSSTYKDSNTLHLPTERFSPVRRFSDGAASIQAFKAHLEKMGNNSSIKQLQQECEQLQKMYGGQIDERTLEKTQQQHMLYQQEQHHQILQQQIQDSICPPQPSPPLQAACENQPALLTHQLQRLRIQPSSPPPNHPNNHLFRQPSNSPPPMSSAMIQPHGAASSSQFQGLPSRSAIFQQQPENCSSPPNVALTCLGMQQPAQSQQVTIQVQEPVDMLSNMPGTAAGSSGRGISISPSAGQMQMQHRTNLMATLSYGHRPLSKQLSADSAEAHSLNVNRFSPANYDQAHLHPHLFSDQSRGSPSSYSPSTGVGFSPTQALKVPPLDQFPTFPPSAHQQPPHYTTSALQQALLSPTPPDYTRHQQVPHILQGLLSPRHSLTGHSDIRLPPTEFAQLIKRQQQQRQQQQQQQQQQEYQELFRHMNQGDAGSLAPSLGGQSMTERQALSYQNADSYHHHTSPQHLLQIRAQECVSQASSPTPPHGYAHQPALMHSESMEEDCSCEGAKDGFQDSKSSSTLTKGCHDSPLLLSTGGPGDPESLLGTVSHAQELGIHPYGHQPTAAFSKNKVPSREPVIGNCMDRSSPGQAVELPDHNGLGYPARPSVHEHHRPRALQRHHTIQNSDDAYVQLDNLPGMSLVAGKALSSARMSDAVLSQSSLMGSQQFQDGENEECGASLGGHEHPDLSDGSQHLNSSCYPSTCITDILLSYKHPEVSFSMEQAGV

[5] = target: T2, Inhibitor of nuclear factor kappa-B kinase subunit epsilon (Homo sapiens, UniProt Q14164)
T2 sequence (Q14164 whole entry): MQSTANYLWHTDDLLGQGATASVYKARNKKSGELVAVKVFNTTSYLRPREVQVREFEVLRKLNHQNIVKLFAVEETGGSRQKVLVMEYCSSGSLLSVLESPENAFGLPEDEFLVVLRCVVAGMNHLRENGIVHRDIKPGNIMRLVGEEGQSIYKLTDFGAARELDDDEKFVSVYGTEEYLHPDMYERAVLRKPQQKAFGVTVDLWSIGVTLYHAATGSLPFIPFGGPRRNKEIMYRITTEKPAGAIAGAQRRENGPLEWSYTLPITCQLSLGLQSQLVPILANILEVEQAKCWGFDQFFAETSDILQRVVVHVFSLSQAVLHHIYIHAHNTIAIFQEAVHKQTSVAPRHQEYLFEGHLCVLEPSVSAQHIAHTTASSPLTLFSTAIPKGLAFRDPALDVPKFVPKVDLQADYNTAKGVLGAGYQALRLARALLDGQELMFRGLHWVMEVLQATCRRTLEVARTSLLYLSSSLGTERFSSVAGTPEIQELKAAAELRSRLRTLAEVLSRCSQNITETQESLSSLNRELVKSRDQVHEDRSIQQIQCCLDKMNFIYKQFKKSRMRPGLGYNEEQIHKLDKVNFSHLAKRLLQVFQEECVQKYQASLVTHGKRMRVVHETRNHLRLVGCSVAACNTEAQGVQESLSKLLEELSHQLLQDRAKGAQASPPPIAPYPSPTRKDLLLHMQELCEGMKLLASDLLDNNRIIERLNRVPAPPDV

[6] = target: Insulin-like growth factor 1 receptor (Homo sapiens, UniProt P08069)
Chain of Insulin-like growth factor 1 receptor (P08069 31-736 limits assumed): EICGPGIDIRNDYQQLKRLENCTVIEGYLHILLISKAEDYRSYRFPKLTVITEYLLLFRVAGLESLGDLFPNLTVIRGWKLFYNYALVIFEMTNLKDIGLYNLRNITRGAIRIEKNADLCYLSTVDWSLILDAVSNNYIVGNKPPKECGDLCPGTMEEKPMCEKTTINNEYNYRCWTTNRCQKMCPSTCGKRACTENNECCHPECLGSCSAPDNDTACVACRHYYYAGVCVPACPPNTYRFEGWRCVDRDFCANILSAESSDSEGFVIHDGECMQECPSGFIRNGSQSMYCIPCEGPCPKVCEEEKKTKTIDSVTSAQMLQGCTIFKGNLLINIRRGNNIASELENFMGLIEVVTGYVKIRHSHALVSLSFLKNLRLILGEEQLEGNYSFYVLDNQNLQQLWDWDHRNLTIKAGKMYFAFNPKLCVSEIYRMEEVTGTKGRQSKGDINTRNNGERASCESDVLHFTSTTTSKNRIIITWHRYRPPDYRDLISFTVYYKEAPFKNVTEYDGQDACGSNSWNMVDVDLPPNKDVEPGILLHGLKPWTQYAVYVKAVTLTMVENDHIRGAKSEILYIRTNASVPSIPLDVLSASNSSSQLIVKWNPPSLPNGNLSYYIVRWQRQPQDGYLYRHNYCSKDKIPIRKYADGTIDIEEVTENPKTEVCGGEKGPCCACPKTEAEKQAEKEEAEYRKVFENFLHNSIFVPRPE
Chain of Insulin-like growth factor 1 receptor (P08069 741-1367 limits assumed): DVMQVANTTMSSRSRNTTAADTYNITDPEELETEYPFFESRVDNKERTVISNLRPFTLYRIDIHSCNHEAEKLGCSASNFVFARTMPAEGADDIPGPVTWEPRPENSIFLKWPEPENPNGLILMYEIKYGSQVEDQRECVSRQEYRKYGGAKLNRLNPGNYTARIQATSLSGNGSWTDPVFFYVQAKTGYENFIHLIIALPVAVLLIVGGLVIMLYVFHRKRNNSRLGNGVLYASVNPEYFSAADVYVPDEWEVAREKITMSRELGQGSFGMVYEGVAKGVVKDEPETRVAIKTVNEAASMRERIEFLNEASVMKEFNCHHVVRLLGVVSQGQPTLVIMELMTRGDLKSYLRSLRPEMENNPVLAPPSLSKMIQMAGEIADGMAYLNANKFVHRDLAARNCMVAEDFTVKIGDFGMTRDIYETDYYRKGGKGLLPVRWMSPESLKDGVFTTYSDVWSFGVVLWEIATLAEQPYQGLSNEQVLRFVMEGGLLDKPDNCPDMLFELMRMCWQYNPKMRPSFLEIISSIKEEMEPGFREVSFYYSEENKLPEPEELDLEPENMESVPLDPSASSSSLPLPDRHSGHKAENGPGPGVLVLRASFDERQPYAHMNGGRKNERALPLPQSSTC

[7] = target: T3, Serine/threonine-protein kinase ICK (Homo sapiens, UniProt Q9UPZ9)
T3 sequence (Q9UPZ9 whole entry): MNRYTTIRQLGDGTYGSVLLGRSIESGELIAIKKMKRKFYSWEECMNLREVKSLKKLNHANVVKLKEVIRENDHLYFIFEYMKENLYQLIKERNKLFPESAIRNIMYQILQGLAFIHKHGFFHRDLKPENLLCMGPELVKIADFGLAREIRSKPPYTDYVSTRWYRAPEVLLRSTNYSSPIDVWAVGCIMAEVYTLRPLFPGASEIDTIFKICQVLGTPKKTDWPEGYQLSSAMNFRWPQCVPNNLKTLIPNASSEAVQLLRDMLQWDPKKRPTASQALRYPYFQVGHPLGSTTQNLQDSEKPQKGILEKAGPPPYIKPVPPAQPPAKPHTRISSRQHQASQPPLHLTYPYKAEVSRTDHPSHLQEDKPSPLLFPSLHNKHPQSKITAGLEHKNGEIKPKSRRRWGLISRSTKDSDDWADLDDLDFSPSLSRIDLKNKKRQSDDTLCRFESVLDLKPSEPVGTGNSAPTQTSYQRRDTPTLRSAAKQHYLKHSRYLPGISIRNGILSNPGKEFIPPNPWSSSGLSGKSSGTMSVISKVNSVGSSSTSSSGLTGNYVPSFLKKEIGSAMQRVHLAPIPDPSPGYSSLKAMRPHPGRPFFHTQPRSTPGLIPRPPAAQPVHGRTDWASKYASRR
Also: in the data inactive means no Kd found up to 30 µM.

Chain of Tyrosine-protein kinase ABL2 (P42684 whole entry): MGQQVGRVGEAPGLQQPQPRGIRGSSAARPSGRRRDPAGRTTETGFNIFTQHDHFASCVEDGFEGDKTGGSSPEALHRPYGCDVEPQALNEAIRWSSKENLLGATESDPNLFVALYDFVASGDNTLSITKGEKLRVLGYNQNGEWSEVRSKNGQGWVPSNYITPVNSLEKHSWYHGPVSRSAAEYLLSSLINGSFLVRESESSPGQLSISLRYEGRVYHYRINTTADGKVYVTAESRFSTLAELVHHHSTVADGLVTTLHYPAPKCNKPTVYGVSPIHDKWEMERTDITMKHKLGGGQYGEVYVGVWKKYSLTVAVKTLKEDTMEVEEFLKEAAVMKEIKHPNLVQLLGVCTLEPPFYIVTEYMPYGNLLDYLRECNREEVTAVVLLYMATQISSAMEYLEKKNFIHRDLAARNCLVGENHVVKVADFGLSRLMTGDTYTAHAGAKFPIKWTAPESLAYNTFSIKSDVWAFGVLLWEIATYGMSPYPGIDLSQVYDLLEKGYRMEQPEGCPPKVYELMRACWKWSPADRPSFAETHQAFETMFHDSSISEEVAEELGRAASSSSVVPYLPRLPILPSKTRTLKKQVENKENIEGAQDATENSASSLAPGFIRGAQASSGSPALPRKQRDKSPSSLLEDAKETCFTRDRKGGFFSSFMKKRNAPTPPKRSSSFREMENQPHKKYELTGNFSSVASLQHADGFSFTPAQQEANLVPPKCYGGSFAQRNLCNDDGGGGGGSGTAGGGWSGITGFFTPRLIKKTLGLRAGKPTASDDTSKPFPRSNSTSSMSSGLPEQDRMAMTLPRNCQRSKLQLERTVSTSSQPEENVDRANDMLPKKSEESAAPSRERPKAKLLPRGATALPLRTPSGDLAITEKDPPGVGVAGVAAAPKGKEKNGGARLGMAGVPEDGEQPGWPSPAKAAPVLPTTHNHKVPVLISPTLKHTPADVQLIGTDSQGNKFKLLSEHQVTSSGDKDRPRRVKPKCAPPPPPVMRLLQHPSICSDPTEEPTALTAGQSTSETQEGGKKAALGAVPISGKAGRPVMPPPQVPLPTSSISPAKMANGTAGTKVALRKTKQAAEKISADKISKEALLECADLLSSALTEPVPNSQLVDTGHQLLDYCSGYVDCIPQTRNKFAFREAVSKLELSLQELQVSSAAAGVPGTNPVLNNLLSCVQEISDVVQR

Structure (SMILES)	Kd [1]	Kd [2]	Kd [3]	Kd [4]	Kd [5]	Kd [6]	Kd [7]
C[C@@H](Oc1cc(C(=O)Nc2ccc(C(=O)N3CCN(C)CC3)cc2)nnc1N)c1c(Cl)ccc(F)c1Cl	> 30 µM (inactive)	> 30 µM (inactive)	> 30 µM (inactive)	> 30 µM (inactive)	> 30 µM (inactive)	> 30 µM (inactive)	–
CC(=O)c1cnc2ccc(-c3cc(Cl)c(O)c(Cl)c3)nc2c1N[C@H]1CC[C@H](CN(C)C)CC1	–	> 30 µM (inactive)	> 30 µM (inactive)	0.356 µM (active)	–	> 30 µM (inactive)	> 30 µM (inactive)
CCNC(=O)C#Cc1ccc2c(c1)NC(=O)/C2=C(\Nc1ccc(CN(C)C)cc1)c1ccccc1	1.48 µM (active)	> 30 µM (inactive)	> 30 µM (inactive)	> 30 µM (inactive)	0.408 µM (active)	> 30 µM (inactive)	–
Cc1nc2cc(-c3nn(C(C)C)c4ncnc(N)c34)ccc2o1	> 30 µM (inactive)	> 30 µM (inactive)	–	> 30 µM (inactive)	> 30 µM (inactive)	> 30 µM (inactive)	> 30 µM (inactive)
Nc1ncnc2c1c(-c1cccc(OCc3ccccc3)c1)cn2[C@H]1C[C@@H](CN2CCC2)C1 [AEW-541]	> 30 µM (inactive)	> 30 µM (inactive)	> 30 µM (inactive)	> 30 µM (inactive)	> 30 µM (inactive)	–	> 30 µM (inactive)
COc1cc(Nc2ncc3c(n2)-c2ccc(Cl)cc2C(c2c(F)cccc2OC)=NC3)ccc1C(=O)O [ALISERTIB]	–	> 30 µM (inactive)	> 30 µM (inactive)	> 30 µM (inactive)	–	–	> 30 µM (inactive)
CNC(=O)c1ccccc1Sc1ccc2c(/C=C/c3ccccn3)n[nH]c2c1 [AXITINIB]	–	> 30 µM (inactive)	> 30 µM (inactive)	–	–	–	–
COc1cc2ncnc(Oc3cccc(NC(=O)Nc4cc(C(C)(C)C(F)(F)F)on4)c3)c2cc1OC [CEP-32496]	0.03 µM (active)	> 30 µM (inactive)	–	> 30 µM (inactive)	> 30 µM (inactive)	> 30 µM (inactive)	> 30 µM (inactive)
Cc1cc(Nc2ncc(Cl)c(Nc3ccccc3S(=O)(=O)C(C)C)n2)c(OC(C)C)cc1C1CCNCC1 [CERITINIB]	> 30 µM (inactive)	> 30 µM (inactive)	> 30 µM (inactive)	> 30 µM (inactive)	> 30 µM (inactive)	–	> 30 µM (inactive)
CC(C)(C)c1nc(-c2cccc(NS(=O)(=O)c3c(F)cccc3F)c2F)c(-c2ccnc(N)n2)s1 [DABRAFENIB]	0.305 µM (active)	> 30 µM (inactive)	> 30 µM (inactive)	2 µM (active)	> 30 µM (inactive)	–	> 30 µM (inactive)
Cn1cc(C2=C(c3cn(C4CCN(Cc5ccccn5)CC4)c4ccccc34)C(=O)NC2=O)c2ccccc21 [ENZASTAURIN]	–	> 30 µM (inactive)	> 30 µM (inactive)	–	–	–	–
Cc1nc2cc(-n3ncc(C(=O)c4cc5ccccc5[nH]4)c3N)ccc2[nH]1 [FGFR INHIBITOR DEBIO 1347]	> 30 µM (inactive)	> 30 µM (inactive)	–	> 30 µM (inactive)	> 30 µM (inactive)	> 30 µM (inactive)	–
C[C@@H](Oc1cc(-n2cnc3ccc(CN4CCN(C)CC4)cc32)sc1C(N)=O)c1ccccc1C(F)(F)F [GSK-461364]	–	> 30 µM (inactive)	–	–	–	–	–
CCn1cc(-c2ccnc3[nH]c(-c4cccc(CN(C)C)c4)cc23)c(-c2ccc(NC(=O)N(C)C)cc2)n1 [GSK-1070916]	> 30 µM (inactive)	–	–	–	–	> 30 µM (inactive)	> 30 µM (inactive)
CN(C[C@@H]1COCCO1)S(=O)(=O)Nc1ccc2ccc3ncc(-c4cnn(C)c4)cc3c(=O)c2c1 [MK-2461]	> 30 µM (inactive)	> 30 µM (inactive)	> 30 µM (inactive)	> 30 µM (inactive)	> 30 µM (inactive)	> 30 µM (inactive)	–
Cc1[nH]c(/C=C2\C(=O)Nc3ccccc32)c(C)c1CCC(=O)O [ORANTINIB]	> 30 µM (inactive)	> 30 µM (inactive)	–	> 30 µM (inactive)	–	–	–
NC(=O)c1c(OCc2c(F)cc(Br)cc2F)nsc1NC(=O)NCCCCN1CCCC1 [OSI-632]	> 30 µM (inactive)	> 30 µM (inactive)	> 30 µM (inactive)	–	–	–	> 30 µM (inactive)
CCOc1cc2ncc(C#N)c(Nc3ccc(F)c(Cl)c3)c2cc1NC(=O)/C=C/CN(C)C [PELITINIB]	–	> 30 µM (inactive)	–	> 30 µM (inactive)	> 30 µM (inactive)	> 30 µM (inactive)	> 30 µM (inactive)
CC(=O)NCC(=O)N1[C@@H]2CC[C@H]1c1ccc(Nc3ncc(C(F)(F)F)c(NC4CCC4)n3)cc12 [PF-03814735]	> 30 µM (inactive)	> 30 µM (inactive)	> 30 µM (inactive)	9.65 µM (active)	–	–	> 30 µM (inactive)
O=C(NOCCO)c1cc(CN2OCCCC2=O)c(F)c(F)c1Nc1ccc(I)cc1F [RO-4987655]	–	> 30 µM (inactive)	> 30 µM (inactive)	–	–	–	–
N#CC[C@H](C1CCCC1)n1cc(-c2ncnc3[nH]ccc23)cn1 [RUXOLITINIB]	–	> 30 µM (inactive)	> 30 µM (inactive)	–	–	–	–
CO[C@H]1C[C@@H]2CC[C@@H](C)[C@@](O)(O2)C(=O)C(=O)N2CCCC[C@H]2C(=O)O[C@H]([C@H](C)C[C@@H]2CC[C@@H](O)[C@H](OC)C2)CC(=O)[C@H](C)/C=C(\C)[C@@H](O)[C@@H](OC)C(=O)[C@H](C)C[C@H](C)/C=C/C=C/C=C/1C [SIROLIMUS]	> 30 µM (inactive)	> 30 µM (inactive)	–	> 30 µM (inactive)	> 30 µM (inactive)	> 30 µM (inactive)	> 30 µM (inactive)
O=C(Cc1ccc(-c2ccc(OCCN3CCOCC3)cc2)cn1)NCc1ccccc1 [TIRBANIBULIN]	> 30 µM (inactive)	> 30 µM (inactive)	–	> 30 µM (inactive)	> 30 µM (inactive)	> 30 µM (inactive)	> 30 µM (inactive)
O=C1NC(=O)[C@@H](c2cn3c4c(cccc24)CCC3)[C@@H]1c1c[nH]c2ccccc12 [TIVANTINIB]	> 30 µM (inactive)	> 30 µM (inactive)	–	> 30 µM (inactive)	> 30 µM (inactive)	> 30 µM (inactive)	> 30 µM (inactive)
Cn1ncc(Cl)c1-c1cc(C(=O)N[C@H](CN)Cc2ccc(F)c(F)c2)oc1Cl [UPROSERTIB]	> 30 µM (inactive)	> 30 µM (inactive)	> 30 µM (inactive)	> 30 µM (inactive)	> 30 µM (inactive)	> 30 µM (inactive)	–
CC(C)c1cc(CNc2nc(Nc3cc(C4CC4)[nH]n3)cc(N3CCN(C)CC3)n2)on1 [XL-228]	0.008 µM (active)	0.953 µM (active)	> 30 µM (inactive)	> 30 µM (inactive)	1.39 µM (active)	–	> 30 µM (inactive)

Reference: ChEMBL document CHEMBL3991601, “The target landscape of clinical kinase drugs” (Science, 2017)
